Data published in paper PMC8262356, “SLC26A6-selective inhibitor identified in a small-molecule screen blocks fluid absorption in small intestine” (JCI Insight, 2021).

Target: T1, slc26a2 (Mus musculus, UniProt Q62273)
T1 construct: Full -length slc26a2 cDNAs; expressed in transfected cells; host or cells: 293 T/17 cells, transient transfection with pIRES-HIF vector (IRES-YFP, not fused)
T1 sequence (Q62273 1-739): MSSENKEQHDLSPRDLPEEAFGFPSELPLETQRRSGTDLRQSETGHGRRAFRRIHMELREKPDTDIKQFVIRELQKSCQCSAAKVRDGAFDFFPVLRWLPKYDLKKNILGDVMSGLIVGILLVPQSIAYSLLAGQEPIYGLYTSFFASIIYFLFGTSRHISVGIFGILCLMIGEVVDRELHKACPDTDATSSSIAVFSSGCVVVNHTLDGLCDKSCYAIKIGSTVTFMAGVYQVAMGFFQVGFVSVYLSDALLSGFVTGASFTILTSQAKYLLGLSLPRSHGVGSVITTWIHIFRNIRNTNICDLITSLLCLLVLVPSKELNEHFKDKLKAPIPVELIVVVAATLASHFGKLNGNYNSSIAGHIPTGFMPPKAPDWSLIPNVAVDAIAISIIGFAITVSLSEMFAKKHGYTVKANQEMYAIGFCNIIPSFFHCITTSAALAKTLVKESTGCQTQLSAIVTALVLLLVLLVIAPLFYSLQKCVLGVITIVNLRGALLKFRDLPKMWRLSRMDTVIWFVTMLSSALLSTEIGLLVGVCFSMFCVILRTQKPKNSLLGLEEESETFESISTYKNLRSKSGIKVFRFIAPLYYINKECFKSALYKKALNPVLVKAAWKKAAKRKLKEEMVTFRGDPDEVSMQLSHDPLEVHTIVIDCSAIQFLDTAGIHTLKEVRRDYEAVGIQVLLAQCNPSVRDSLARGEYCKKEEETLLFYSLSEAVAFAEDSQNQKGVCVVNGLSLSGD
Experiment: Selectivity: Cl-/I- exchange in 293T/17 cells transfected with slc26a2 and YFP
Assay type: cell-based
Settings: 25 μM, 10 min preincubation
Method: YFP-based cellular assays of slc26a3, slc26a4, SLC26A9, and TMEM16A function were performed as described previously ([7]). Slc26a1 and slc26a2 assays were done in transfected HEK 293 cells (see Supplemental Methods for details). Niflumic acid was used as a positive control for SLC26A isoforms ([7]). For TMEM16A, the selective small-molecule inhibitor TMinh-23 was used as a positive control ([28]). The activities of ENaC, CFTR, and CaCC were determined using well-differentiated HBE cells as described previously ([13]). Cl^–/HCO3^– exchange was measured as described previously ([7], [10], [11]). Briefly, cell cytoplasm was labeled with the pH-sensitive fluorescent dye BCECF-AM (Invitrogen), and Cl^–/HCO3^– exchange was measured in response to addition of a gluconate-containing solution to drive exchange of cytoplasmic Cl^– for extracellular HCO3^–, producing cytoplasmic alkalinization.
Slc26a1 and slc26a2 cDNA constructs
The complementar y DNA sequences of slc26a1 and slc26a2 were generated using gB LOCK gene fragments (Int egrat ed DNA technology, Coralville, IA) in the plasmid vector pIRESpuro3 (Takara, San J ose, CA). […]
PBS. […] Background-corrected, area-integrat ed single cell fluorescence was calcul ated for determination of slc26a1 / slc26a2 activit y from the rate of fluorescence quenching. […]

effect on slc26a2 activity: did not affect
Compound: Cc1c(Br)c(C(F)(F)F)nn1CC(=O)N1CCc2nc3cc(-c4ccccc4)[nH]n3c(=O)c2C1 [PAT1inh-B01]
